The values that follow come from US8815882B2, “Pyrazole aminopyrimidine derivatives as LRRK2 modulators” (Genentech, Inc., priority 2010, dated 2014).

Each structure is given as a SMILES string.

The first test deals with T1, LRRK2 (Homo sapiens, UniProt Q5S007, G2019S).
T1 construct: purchased Invitrogen PV4882 (lot 567054A)
T1 sequence (Q5S007 whole entry G2019S): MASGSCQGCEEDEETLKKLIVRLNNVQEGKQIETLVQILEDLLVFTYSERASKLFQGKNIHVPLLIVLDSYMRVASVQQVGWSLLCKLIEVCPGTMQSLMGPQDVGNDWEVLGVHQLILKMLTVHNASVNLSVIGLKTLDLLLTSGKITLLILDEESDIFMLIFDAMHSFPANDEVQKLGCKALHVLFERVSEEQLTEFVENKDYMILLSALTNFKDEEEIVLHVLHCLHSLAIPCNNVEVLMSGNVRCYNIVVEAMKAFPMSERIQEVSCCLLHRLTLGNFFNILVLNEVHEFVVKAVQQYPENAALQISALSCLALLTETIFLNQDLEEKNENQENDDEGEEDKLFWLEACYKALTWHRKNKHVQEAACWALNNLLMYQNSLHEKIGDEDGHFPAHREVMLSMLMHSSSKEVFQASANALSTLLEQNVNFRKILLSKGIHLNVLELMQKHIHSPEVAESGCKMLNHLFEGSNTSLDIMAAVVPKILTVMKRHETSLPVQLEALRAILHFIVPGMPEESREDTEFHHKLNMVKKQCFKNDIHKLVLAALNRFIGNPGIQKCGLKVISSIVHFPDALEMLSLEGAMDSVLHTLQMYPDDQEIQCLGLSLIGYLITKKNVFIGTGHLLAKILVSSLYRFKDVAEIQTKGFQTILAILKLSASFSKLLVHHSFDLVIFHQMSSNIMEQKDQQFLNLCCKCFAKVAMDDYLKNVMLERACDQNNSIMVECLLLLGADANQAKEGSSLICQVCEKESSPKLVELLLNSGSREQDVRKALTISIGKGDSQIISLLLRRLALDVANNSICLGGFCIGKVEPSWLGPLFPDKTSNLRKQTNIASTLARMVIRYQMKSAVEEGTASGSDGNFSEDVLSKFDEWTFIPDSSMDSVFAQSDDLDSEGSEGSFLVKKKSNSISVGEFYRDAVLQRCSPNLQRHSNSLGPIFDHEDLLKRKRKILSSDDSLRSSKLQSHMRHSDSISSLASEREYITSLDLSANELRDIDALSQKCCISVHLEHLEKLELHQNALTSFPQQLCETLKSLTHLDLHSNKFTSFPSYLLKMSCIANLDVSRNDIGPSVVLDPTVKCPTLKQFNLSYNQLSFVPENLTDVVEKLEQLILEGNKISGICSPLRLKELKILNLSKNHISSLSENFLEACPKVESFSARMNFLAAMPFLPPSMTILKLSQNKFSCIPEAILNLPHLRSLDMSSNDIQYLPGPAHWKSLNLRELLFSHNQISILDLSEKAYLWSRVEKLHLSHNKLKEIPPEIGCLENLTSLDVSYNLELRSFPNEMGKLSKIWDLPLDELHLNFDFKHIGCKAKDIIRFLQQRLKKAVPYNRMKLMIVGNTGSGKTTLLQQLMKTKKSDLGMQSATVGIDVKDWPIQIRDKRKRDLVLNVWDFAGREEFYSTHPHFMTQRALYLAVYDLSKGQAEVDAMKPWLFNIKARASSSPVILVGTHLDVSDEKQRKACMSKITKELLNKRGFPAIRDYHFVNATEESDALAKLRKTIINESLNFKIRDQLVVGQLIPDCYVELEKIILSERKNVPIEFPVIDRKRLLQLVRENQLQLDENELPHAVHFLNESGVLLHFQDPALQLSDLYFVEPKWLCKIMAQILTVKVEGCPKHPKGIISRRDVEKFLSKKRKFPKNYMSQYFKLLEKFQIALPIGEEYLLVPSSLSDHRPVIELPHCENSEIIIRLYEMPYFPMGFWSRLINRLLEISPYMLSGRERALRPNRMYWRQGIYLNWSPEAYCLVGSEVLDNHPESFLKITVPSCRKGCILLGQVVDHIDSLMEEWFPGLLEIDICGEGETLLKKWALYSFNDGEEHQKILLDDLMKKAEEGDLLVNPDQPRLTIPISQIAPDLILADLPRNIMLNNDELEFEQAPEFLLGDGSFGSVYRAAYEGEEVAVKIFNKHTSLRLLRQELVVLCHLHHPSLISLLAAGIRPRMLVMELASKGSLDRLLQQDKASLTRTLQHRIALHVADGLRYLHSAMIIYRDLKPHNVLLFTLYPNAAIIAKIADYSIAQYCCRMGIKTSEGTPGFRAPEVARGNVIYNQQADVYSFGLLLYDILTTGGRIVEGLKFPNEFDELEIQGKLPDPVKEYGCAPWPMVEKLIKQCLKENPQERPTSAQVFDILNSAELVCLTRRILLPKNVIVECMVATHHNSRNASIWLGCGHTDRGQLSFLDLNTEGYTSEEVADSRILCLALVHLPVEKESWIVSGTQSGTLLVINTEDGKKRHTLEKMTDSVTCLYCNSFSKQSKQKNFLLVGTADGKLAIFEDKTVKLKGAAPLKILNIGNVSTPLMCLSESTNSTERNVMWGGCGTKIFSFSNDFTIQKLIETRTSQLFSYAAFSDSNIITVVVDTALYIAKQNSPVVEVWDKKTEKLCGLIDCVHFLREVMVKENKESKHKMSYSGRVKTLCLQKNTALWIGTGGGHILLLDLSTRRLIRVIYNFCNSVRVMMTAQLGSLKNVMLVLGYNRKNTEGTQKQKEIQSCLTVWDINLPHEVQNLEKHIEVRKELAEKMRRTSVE
As to the kind of experiment: In Vitro LRRK2 Assay (LabChip 3000, fluorescently-labeled peptide substrate, ATP). Type of test: biochemical. Particulars: Table 9; LRRK2 Ki (micromolar); read-out: LRRK2 Ki (KI). Summed up: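 Read-out was LabChip capillary electrophoresis, resolving phospho- from non-phospho-peptide by fluorescence intensity. The kinase reaction combined enzyme, ATP, test compound and labeled peptide (4 μM working dilution) for 2 h in darkness before stop solution. Values were reported as Ki, from a tight-binding model with Et, S and Km, or as IC50 or percent inhibition.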
As to `CNc1nc(Nc2cn(C(F)F)nc2C)ncc1C#N` [Example 365, 2-(1-(difluoromethyl)-3-methyl-1H-pyrazol-4-ylamino)-4-(methylamino) pyrimidine-5-carbonitrile], the Ki worked out at 35 nM.
Regarding `CNc1nc(Nc2cnn(C3CCC(F)(F)CC3)c2C)ncc1C#N` [Example 381, 2-(1-(4,4-difluorocyclohexyl)-5-methyl-1H-pyrazol-4-ylamino)-4-(methylamino) pyrimidine-5-carbonitrile], the inhibition constant Ki came to 11 nM.
For `CNc1nc(Nc2cn(-c3ccccc3)nc2C)ncc1C#N` [Example 354, 2-(3-methyl-1-phenyl-1H-pyrazol-4-ylamino)-4-(methylamino) pyrimidine-5-carbonitrile], the Ki turned out to be 120 nM.
Same read-out and setting: the value for `CCn1cc(Nc2ncc(C#N)c(NC)n2)c(C)n1` [Example 353, 2-(1-ethyl-3-methyl-1H-pyrazol-4-ylamino)-4-(methylamino) pyrimidine-5-carbonitrile] was 36 nM.
Consider `CNc1nc(Nc2cn(CC(F)(F)F)nc2C)ncc1C#N` [Example 359, 2-(3-methyl-1-(2,2,2-trifluoroethyl)-1H-pyrazol-4-ylamino)-4-(methylamino) pyrimidine-5-carbonitrile], for which the Ki is 53 nM.

The same test, now with this note: Table 10; LRRK2 Ki (micromolar); read-out: LRRK2 Ki (KI).
Turning to `CNc1nc(Nc2cn([C@@H](C)C#N)nc2C)ncc1C(F)(F)F` [Example 416, (S)-2-(3-methyl-4-(4-(methylamino)-5-(trifluoromethyl)pyrimidin-2-ylamino)-1H-pyrazol-1-yl)propanenitrile], the inhibitory constant (Ki) came to 1.9 nM.
On to `CNC(=O)Cn1ncc(Nc2ncc(C(F)(F)F)c(NC)n2)c1C` [Example 398, N-methyl-2-(5-methyl-4-(4-(methylamino)-5-(trifluoromethyl)pyrimidin-2-ylamino)-1H-pyrazol-1-yl)acetamide], for which the Ki turned out to be 3 nM.
On the same count and under the same terms, next, `CNc1nc(Nc2cn(C(C)(C)C(=O)NCC3CC3)nc2C)ncc1C(F)(F)F` [Example 427, N-(cyclopropylmethyl)-2-methyl-2-(3-methyl-4-(4-(methylamino)-5-(trifluoromethyl)pyrimidin-2-ylamino)-1H-pyrazol-1-yl)propanamide]: 52 nM; `CNC(=O)Cn1cc(Nc2ncc(C(F)(F)F)c(NC)n2)c(C)n1` [Example 397, N-methyl-2-(3-methyl-4-(4-(methylamino)-5-(trifluoromethyl)pyrimidin-2-ylamino)-1H-pyrazol-1-yl)acetamide]: 9.5 nM.

Still in this test, the particulars now being: read-out: LRRK2 Ki (KI), Table 7.
For `CNc1nc(Nc2cnn(C)c2OC)ncc1C(F)(F)F` [Example 84, N^2-(5-Methoxy-1-methyl-1H-pyrazol-4-yl)-N^4-methyl-5-trifluoromethyl-pyrimidine-2,4-diamine], the Ki turned out to be 74.2 nM.
With `COc1nc(Nc2cn(-c3ccc(C#N)cc3)nc2C)ncc1Cl` [Example 68, 4-(4-(5-chloro-4-methoxy-pyrimidin-2-ylamino)-3-methyl-1H-pyrazol-1-yl)benzonitrile], the Ki came to 2.4 nM.
As to `COc1nc(Nc2cn(C3CCN(CCF)CC3)nc2C)ncc1Cl` [Example 86, (5-Chloro-4-methoxy-pyrimidin-2-yl)-{1-[1-(2-fluoro-ethyl)-piperidin-4-yl]-3-methyl-1H-pyrazol-4-yl}-amine], the Ki amounted to 183 nM.
Still for that read-out and setting: the value for `COc1nc(Nc2cnn(C)c2Cl)ncc1Cl` [Example 21, 5-Chloro-N-(5-chloro-1-methyl-1H-pyrazol-4-yl)-4-methoxy-pyrimidin-2-amine] was 20 nM.
As to `CCn1cc(Nc2ncc(Cl)c(OC)n2)c(C)n1` [Example 26, 5-Chloro-N-(1-ethyl-3-methyl-1H-pyrazol-4-yl)-4-methoxy-pyrimidin-2-amine], the Ki stood at 13 nM.
On to `COc1nc(Nc2cnn(C3CCN(C(=O)C4(C)CC4)CC3)c2C)ncc1Cl` [Example 67, (4-(4-(5-chloro-4-methoxy-pyrimidin-2-ylamino)-5-methyl-1H-pyrazol-1-yl)piperidin-1-yl)(1-methylcyclo-propyl) methanone], for which the inhibition constant (Ki) is 89 nM.
With `COc1nc(Nc2cn(-c3ccc(C(=O)N(C)C)cc3)nc2C)ncc1Cl` [Example 81, 4-[4-(5-Chloro-4-methoxy-pyrimidin-2-ylamino)-3-methyl-pyrazol-1-yl]-N,N-dimethyl-benzamide], the inhibitory constant (Ki) was 2.2 nM.
On the same count and under the same terms, the value for `CC(C)n1cc(Nc2ncc(Cl)c(OC3CCOCC3)n2)cn1` [Example 11, 5-Chloro-N-(1-isopropyl-1H-pyrazol-4-yl)-4-(tetrahydro-2H-pyran-4-yloxy)pyrimidin-2-amine] was 33 nM; that for `COc1nc(Nc2cc(C3CC3)nn2C)ncc1Cl` [Example 39, 5-Chloro-N-(3-cyclopropyl-1-methyl-1H-pyrazol-5-yl)-4-methoxy-pyrimidin-2-amine] was 59 nM.

Staying with this test, now noted: read-out: LRRK2 Ki (KI), Table 8.
As for `CCNc1nc(Nc2cn(C3CCC(=O)NC3)nc2C)ncc1C(F)(F)F` (stereo not drawn) [Example 262, 5-[4-(4-Ethylamino-5-trifluoromethyl-pyrimidin-2-ylamino)-3-methyl-pyrazol-1-yl]-piperidin-2-one], the Ki came to 1.3 nM.
The same measure, in the same setting: the value for `CNc1nc(Nc2cnn(C3CCCOC3)c2C)ncc1C(F)(F)F` (stereo not drawn) [Example 231, N4-methyl-N2-(5-methyl-1-(tetrahydro-2H-pyran-3-yl)-1H-pyrazol-4-yl)-5-(trifluoromethyl) pyrimidine-2,4-diamine] was 1.8 nM; that for `CCNc1nc(Nc2cn(S(C)(=O)=O)nc2C)ncc1C(F)(F)F` [Example 160, N4-ethyl-N2-(3-methyl-1-(methylsulfonyl)-1H-pyrazol-4-yl)-5-(trifluoromethyl) pyrimidine-2,4-diamine] was 0.3 nM; that for `CCNc1nc(Nc2cn(C3CCN(C(=O)C(C)C)CC3)nc2C)ncc1C(F)(F)F` [Example 268, 1-{4-[4-(4-Ethylamino-5-trifluoromethyl-pyrimidin-2-ylamino)-3-methyl-pyrazol-1-yl]-piperidin-1-yl}-2-methyl-propan-1-one] was 7.7 nM.
Same read-out and setting: the value for `CNc1nc(Nc2cnn(C(C)c3ccccn3)c2C)ncc1C(F)(F)F` (stereo not drawn) [Example 225, N4-methyl-N2-(5-methyl-1-(1-(pyridin-2-yl)ethyl)-1H-pyrazol-4-yl)-5-(trifluoromethyl) pyrimidine-2,4-diamine] was 3.8 nM; that for `CNc1nc(Nc2cn(-c3ccc(Cl)cc3)nc2C)ncc1C(F)(F)F` [Example 129, N2-(1-(4-chlorophenyl)-3-methyl-1H-pyrazol-4-yl)-N4-methyl-5-(trifluoromethyl) pyrimidine-2,4-diamine] was 28 nM.
Same read-out and setting: the value for `CNc1nc(Nc2cnn(C)c2C(C)C)ncc1C(F)(F)F` [Example 223, N2-(5-isopropyl-1-methyl-1H-pyrazol-4-yl)-N4-methyl-5-(trifluoromethyl) pyrimidine-2,4-diamine] was 14 nM; that for `CCNc1nc(Nc2cnn(C3CCN(C4COC4)CC3F)c2Cl)ncc1C(F)(F)F` (stereo not drawn) [Example 306, N2-[5-Chloro-1-(3-fluoro-1-oxetan-3-yl-piperidin-4-yl)-1H-pyrazol-4-yl]-N4-ethyl-5-trifluoromethyl-pyrimidine-2,4-diamine] was 0.6 nM; that for `CNc1nc(Nc2cnn([C@H](C)COC)c2C)ncc1C(F)(F)F` [Example 274, N2-[1-((R)-2-Methoxy-1-methyl-ethyl)-5-methyl-1H-pyrazol-4-yl]-N4-methyl-5-trifluoromethyl-pyrimidine-2,4-diamine] was 18.5 nM.
Consider `CNC(=O)C(C)(C)n1ncc(Nc2ncc(C(F)(F)F)c(NC)n2)c1Cl` [Example 237, 2-(5-chloro-4-(4-(methylamino)-5-(trifluoromethyl)pyrimidin-2-ylamino)-1H-pyrazol-1-yl)-N,2-dimethylpropan-amide], for which the inhibition constant Ki worked out at 45 nM.
On the same count and under the same terms, next, `CCNc1nc(Nc2cn(C3CCN(C4COC4)CC3F)nc2C)ncc1C(F)(F)F` (stereo not drawn) [Example 319, N4-Ethyl-N2-[1-(3-fluoro-1-oxetan-3-yl-piperidin-4-yl)-3-methyl-1H-pyrazol-4-yl]-5-trifluoromethyl-pyrimidine-2,4-diamine]: 0.3 nM.
Same read-out and setting: next, `CCNc1nc(Nc2cnn(CC3(C)COC3)c2C)ncc1C(F)(F)F` [Example 169, N4-ethyl-N2-(5-methyl-1-((3-methyloxetan-3-yl)methyl)-1H-pyrazol-4-yl)-5-(trifluoromethyl) pyrimidine-2,4-diamine]: 2.2 nM; `CNc1nc(Nc2cn(S(C)(=O)=O)nc2C)ncc1Cl` [Example 101, 5-chloro-N4-methyl-N2-(3-methyl-1-(methylsulfonyl)-1H-pyrazol-4-yl)pyrimidine-2,4-diamine]: 8.8 nM.
Still for that read-out and setting: the value for `CNc1nc(Nc2cnn(CC(O)C(C)C)c2C)ncc1C(F)(F)F` (stereo not drawn) [Example 320, 3-Methyl-1-[5-methyl-4-(4-methylamino-5-trifluoromethyl-pyrimidin-2-ylamino)-pyrazol-1-yl]-butan-2-ol] was 3 nM.
On to `CNc1nc(Nc2c[nH]nc2C)ncc1C(F)(F)F` [Example 103, N4-methyl-N2-(3-methyl-1H-pyrazol-4-yl)-5-(trifluoromethyl) pyrimidine-2,4-diamine], for which the inhibition constant Ki was 9 nM.
As to `CNc1nc(Nc2cnn(Cc3cnccn3)c2C)ncc1C(F)(F)F` [Example 316, N4-Methyl-N2-(5-methyl-1-pyrazin-2-ylmethyl-1H-pyrazol-4-yl)-5-trifluoromethyl-pyrimidine-2,4-diamine], the Ki is 2.6 nM.
On the same count and under the same terms, next, `CCNc1nc(Nc2cn(C(C)(C)CN3CCOCC3)nc2C)ncc1C(F)(F)F` [Example 298, N2-[1-(1,1-Dimethyl-2-morpholin-4-yl-ethyl)-3-methyl-1H-pyrazol-4-yl]-N4-ethyl-5-trifluoromethyl-pyrimidine-2,4-diamine]: 50.6 nM.

The same test, now with this note: read-out: LRRK2 Ki given in the example.
Consider `CNc1nc(Nc2cn(C(C)(C)C#N)nc2C)ncc1C(F)(F)F` [Example 394, 2-methyl-2-(3-methyl-4-(4-(methylamino)-5-(trifluoromethyl)pyrimidin-2-ylamino)-1H-pyrazol-1-yl)propanenitrile], for which the inhibitory constant (Ki) was determined as 0.5 nM.

As usually defined, the Ki is the equilibrium dissociation constant of an inhibitor or competing ligand from its target.
